In assay [1] the target is T1, human VR1 (Homo sapiens, UniProt Q8NER1).
T1 construct: expressed in transfected cells
As to the kind of experiment: VR1 pH-based assay in HEK293-EcR cells (FLIPR, Fluo-4). The assay is classed as cell-based. Conditions: activation by agonist buffer giving pH 5.5, human VR1 in PonA-induced HEK293-EcR cells, 50 pM to 3 μM, n+3. Here is the method: Human VR1 cloning. Human spinal cord RNA (commercially available from Clontech, Palo Alto, Calif.) was used. Reverse transcription was conducted on 1.0 μg total RNA using Thermoscript Reverse Transcriptase (commercially available from Invitrogen, Carlsbad, Calif.) and oligo dT primers as detailed in its product description. Reverse transcription reactions were incubated at 55° C. for 1 h, heat-inactivated at 85° C. for 5 min, and RNase H-treated at 37° C. for 20 min. Human VR1 cDNA sequence was obtained by comparison of the human genomic sequence, prior to annotation, to the published rat sequence. Intron sequences were removed and flanking exonic sequences were joined to generate the hypothetical human cDNA. Primers flanking the coding region of human VR1 were designed as follows: forward primer, [NT]; and reverse primer, [NT] of VR1 was performed on one tenth of the Reverse transcription reaction mixture using Expand Long Template Polymerase and Expand Buffer 2 in a final volume of 50 μL according to the manufacturer's instructions (Roche Applied Sciences, Indianapolis, Ind.). After denaturation at 94° C. for 2 min PCR amplification was performed for 25 cycles at 94° C. for 15 sec, 58° C. for 30 sec, and 68° C. for 3 min followed by a final incubation at 72° C. for 7 min to complete the amplification. […]

In assay [2] the target is T1, human VR1. In words: VR1 capsaicin-based assay in HEK293-EcR cells (FLIPR, Fluo-4). The assay is classed as cell-based. The method, then:
Human VR1 cloning. Human spinal cord RNA (commercially available from Clontech, Palo Alto, Calif.) was used. Reverse transcription was conducted on 1.0 μg total RNA using Thermoscript Reverse Transcriptase (commercially available from Invitrogen, Carlsbad, Calif.) and oligo dT primers as detailed in its product description. Reverse transcription reactions were incubated at 55° C. for 1 h, heat-inactivated at 85° C. for 5 min, and RNase H-treated at 37° C. for 20 min. Human VR1 cDNA sequence was obtained by comparison of the human genomic sequence, prior to annotation, to the published rat sequence. Intron sequences were removed and flanking exonic sequences were joined to generate the hypothetical human cDNA. […] On the day of assay, cells were loaded with Fluo-4 (a calcium-sensitive dye that is commercially available from Molecular Probes, Eugene, Oreg.) and CAP-mediated calcium influx was measured using a Fluorometric Imaging Plate Reader (“FLIPR”) (commercially available from Molecular Devices Corp., Sunnyvale, Calif.) as described below. […]

One molecule from patent US7279493B2, “Therapeutic agents useful for treating pain” (Euro-Celtique S.A., priority 2002, dated 2007) can be followed below.

Usually IC50 stands for the point on the concentration scale where inhibition reaches its midpoint. High values mean a need for much substance, low ones inhibition by little substance.

T1 sequence (Q8NER1 whole entry): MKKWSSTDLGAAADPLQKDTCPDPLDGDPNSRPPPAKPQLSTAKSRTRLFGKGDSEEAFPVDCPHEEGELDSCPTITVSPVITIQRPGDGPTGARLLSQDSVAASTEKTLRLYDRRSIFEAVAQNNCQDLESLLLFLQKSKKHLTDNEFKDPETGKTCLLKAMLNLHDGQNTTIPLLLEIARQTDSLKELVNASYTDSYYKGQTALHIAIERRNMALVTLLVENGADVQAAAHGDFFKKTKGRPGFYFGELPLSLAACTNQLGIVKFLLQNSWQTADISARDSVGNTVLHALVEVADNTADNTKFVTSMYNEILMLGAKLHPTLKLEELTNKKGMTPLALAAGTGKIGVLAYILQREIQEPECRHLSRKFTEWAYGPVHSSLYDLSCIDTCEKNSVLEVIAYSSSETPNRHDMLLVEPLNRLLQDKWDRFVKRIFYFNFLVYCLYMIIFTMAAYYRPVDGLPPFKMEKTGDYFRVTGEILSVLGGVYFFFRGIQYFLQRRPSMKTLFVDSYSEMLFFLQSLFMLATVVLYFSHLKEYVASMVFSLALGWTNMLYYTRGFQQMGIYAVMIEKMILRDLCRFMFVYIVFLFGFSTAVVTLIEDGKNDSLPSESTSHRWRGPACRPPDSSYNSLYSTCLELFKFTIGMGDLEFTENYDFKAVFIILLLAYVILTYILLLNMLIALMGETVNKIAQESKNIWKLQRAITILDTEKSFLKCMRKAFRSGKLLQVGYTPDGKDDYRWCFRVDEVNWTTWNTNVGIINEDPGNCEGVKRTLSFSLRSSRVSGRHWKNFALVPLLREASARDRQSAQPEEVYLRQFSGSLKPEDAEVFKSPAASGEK

Regarding `C[C@@H]1CN(c2ncccc2Cl)CCN1/C(=N\C#N)NCCC1=CCCCC1` [Compound DEY], the IC50 was determined as 197 ± 39.8 nM at human VR1 [1] and 59.4 ± 13.1 nM against human VR1 [2] (capsaicin-based assay, human VR1 activated by capsaicin (400 nM) in PonA-induced HEK293-EcR cells, 50 pM to 3 μM, n+3). For the same molecule, the “binding to and modulation of human VR1 (conclusion in words)” value on human VR1 [2] (conclusion from the pH-based assay and the capsaicin-based assay) is “binds to and modulates the activity of human VR1”.
